# In patent US8957192B2, “Human cytotoxic T-lymphocyte epitope and its agonist epitope from the non-variable number of tandem repeat sequence of MUC-1” (The United States of America, as represented by the …, priority 2003, dated 2015):
# Where “and” joins values, the source holds several entries; their conditions need not be identical. Equal entries are not always repeated.
# Tests used:
# HLA-A2 molecule = HLA-A2 molecule (Homo sapiens, UniProt P04439, I166T/I218V/L300P/L318F/N151K/N90K/P208A/P217A/Q86G/Q94H/R138H/R169H/T345S); assay: T2 cell binding assay: peptide binding to HLA-A2 by flow cytometry; settings: Table 1; T2 cells, peptide 50 μg/ml
# Experimental: In this assay, increased stability (accumulation) of HLA-A2 molecules on the surface of T2 cells as a consequence of peptide binding is measured by increased binding of antibody directed against HLA-A2 molecule. Briefly, 1×10^6 cells in serum-free Iscove's modified Dulbecco's complete medium were incubated with peptides at a concentration of 50 μg/ml in 24-well culture plates at 37° C. in 5% CO2. Flow cytometry for peptide binding was performed using T2 cells and single-color analysis. After cells were washed three times in DPBS, as described above, they were incubated for 1 h with a 1:100 dilution of HLA-A2-specific MAb (One Lambda, Inc.) per 10^6 cells. UPC-10 (Cappel/Organon Teknika) was used as isotype control. The cells were then washed three times and incubated with 1:100 dilution of FITC-labeled anti-mouse IgG (BD Biosciences). Analysis was conducted with the FACScan, as described above. Cells were maintained on ice during all cell preparation and staining.
# The primary amino acid sequence of human MUC-1 was analyzed for consensus motifs for novel HLA-A2 binding peptides. […] The CEA CAP1-6D peptide and a NCA peptide were used as a positive and negative control, respectively.
# T-1191-MUC-1 cells = assay: IFN-γ production (ELISA) by T-1191-MUC-1 cells stimulated with peptide-pulsed autologous B cells; format: cell-based, human; settings: T-1191-MUC-1 at IVS-3; autologous EBV-B cells pulsed 25 μg/ml; effector-to-APC 1:3; 24 h
# Experimental: Supernatants of T cells exposed for 24 h to peptide-pulsed autologous EBV-transformed B cells, in IL-2-free medium at various peptide concentrations, were screened for secretion of IFN-γ using an ELISA kit (R & D Systems, Minneapolis, Minn.). The results were expressed in pg/ml. A CBA system (BD PharMingen, San Diego, Calif.) was also used to determine the secretion of multiple cytokines by specific T cells. The CBA system uses the fluorescence detection by flow cytometry to measure soluble analyses in a particles-based immunoassay. The BD human Th1/Th2 cytokine CBA Kit was used to measure IL-2, IL-4, IL-5, IL-10, TNF-α protein levels in a single sample. The cytokine capture beads were mixed with PE-conjugated detection antibodies and then incubated with recombinant cytokine standards or test samples to form sandwich complexes. The sample results were generated in graphic and tabular format, using BD PharMingen CBA analysis software. The results were expressed in pg/ml.
# The specificity of the MUC-1-specific T cells generated (designated T-1191-MUC-1) was analyzed after IVS cycle 3 (see Materials and Methods) for their ability to release IFN-γ after stimulation with autologous B cells pulsed with each of the MUC-1 peptides listed in Table 1.
# [1] = test system: T-cell lines T-55, T-49, T-41; assay: IFN-γ production by T-cell lines from cancer patients established with rF-CEA/MUC/TRICOM-infected DCs; format: cell-based, human; settings: autologous DCs as APC; peptides 25 μg/ml; effector-to-APC 10:1; 24 h
# [2] = test system: MUC-1-specific T-cell lines T-23-P-92, T-23-P-93L, T-18-P-92, T-18-P-93L; assay: IFN-γ production by T-cell lines from two pancreatic cancer subjects stimulated with peptide-pulsed DCs; format: cell-based, human; settings: IVS-4; allogeneic DCs pulsed 25 μg/ml; effector-to-APC 10:1; 24 h
# [3] = test system: CEA-specific T cells (V8T); format: cell-based, human; settings: 24 h
# [4] = test system: MUC-1-specific T cells (T-1191-P93L); format: cell-based, human; settings: 24 h
# [5] = test system: T-cell lines T-rV, T-rF, T-rF(CEA), T-rF(MUC); format: cell-based, human; settings: 24 h
Sequence,T2 binding (HLA-A2 molecule) [relative fluorescence],"Production of IFN-γ, with peptide (T-1191-MUC-1 cells) [pg/mL]",also measured
LAFREGTINV [Peptide P-1105],461,<52.3,
LIALAVCQC (YLIALAVCQC) [Peptide P-1177],338,<52.3,
LQRDISEMFL [Peptide P-1069],433,288.0,
REGTINVHDV [Peptide P-1108],482,<52.3,
TISDVSVSDV [Peptide P-1135],422,347.2,
TLASHSTKTD [Peptide P-1104],442,305.6,
"VISNDVCAQV [PSA peptide, prostate-specific antigen (PSA) peptide, control]",,,IFN-γ secretion by T-41 [1]: <15.6 pg/mL; IFN-γ secretion by T-49 [1]: <15.6 pg/mL; IFN-γ secretion by T-55 [1]: <15.6 pg/mL
VLVALAIVYL [Peptide P-1169],369,<52.3,
WGQDVTSVPV [Peptide P-94],591,323.6,
"YLSGADLNL [CAP1-6D, reference compound]",,,"IFN-γ produced by T-18-P-92 [2]: <26 pg; IFN-γ produced by T-18-P-93L [2]: <26 pg; IFN-γ produced by T-23-P-92 [2]: <26 pg; IFN-γ produced by T-23-P-93L [2]: <26 pg; IFN-γ, CEA-specific CTL [3]: 772 pg/mL and 820 pg/mL; IFN-γ, MUC-1-specific CTL [4]: <15 pg/mL; Production of IFN-γ by T-rF [5]: 550.0 pg/mL; Production of IFN-γ by T-rF(CEA) [5]: 729.2 pg/mL; Production of IFN-γ by T-rF(MUC) [5]: <15.6 pg/mL; Production of IFN-γ by T-rV [5]: 976.3 pg/mL; IFN-γ secretion by T-41 [1]: 933.4 pg/mL; IFN-γ secretion by T-49 [1]: 974.2 pg/mL; IFN-γ secretion by T-55 [1]: >1,000 pg/ml"
"YRPGENLNL [NCA, NCA peptide used as a negative control, reference compound]",365,,
